Experimental data: PubChem BioAssay (NCI)
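Grown in 96-well plates, cells were treated for 48 hours with each compound at five concentrations. Insufficient inhibition: endpoint recorded as highest concentration tested. TGI marks complete inhibition of growth.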

Experiments:
Assay in all cases: NCI tumour cell line growth inhibition, 48 h
HCC-2998 colon = test system: HCC-2998 colon
ACHN renal = test system: ACHN renal
KM20L2 colon = test system: KM20L2 colon
LOX IMVI melanoma = test system: LOX IMVI melanoma
NCI-H522 lung = test system: NCI-H522 lung
CCRF-CEM leukemia = test system: CCRF-CEM leukemia
SNB-78 CNS = test system: SNB-78 CNS
COLO 205 colon = test system: COLO 205 colon
OVCAR-3 ovarian = test system: OVCAR-3 ovarian
HOP-92 NSCLC = test system: HOP-92 NSCLC
HT29 colon = test system: HT29 colon
A498 renal = test system: A498 renal
HOP-62 NSCLC = test system: HOP-62 NSCLC
IGROV1 ovarian = test system: IGROV1 ovarian
TK-10 renal = test system: TK-10 renal
SK-MEL-2 melanoma = test system: SK-MEL-2 melanoma
LXFL 529 NSCLC = test system: LXFL 529 NSCLC
MALME-3M melanoma = test system: MALME-3M melanoma
M19-MEL melanoma = test system: M19-MEL melanoma
NCI-H460 lung = test system: NCI-H460 lung
DLD-1 colon = test system: DLD-1 colon
KM12 colon = test system: KM12 colon
SNB-75 CNS = test system: SNB-75 CNS
UACC-257 melanoma = test system: UACC-257 melanoma
HCT-116 colon = test system: HCT-116 colon
SK-OV-3 ovarian = test system: SK-OV-3 ovarian
SF-295 CNS = test system: SF-295 CNS
K-562 leukemia = test system: K-562 leukemia
NCI-H23 lung = test system: NCI-H23 lung
OVCAR-8 ovarian = test system: OVCAR-8 ovarian
MOLT-4 leukemia = test system: MOLT-4 leukemia
RPMI-8226 leukemia = test system: RPMI-8226 leukemia
U251 CNS = test system: U251 CNS
HL-60(TB) leukemia = test system: HL-60(TB) leukemia
RXF 393 renal = test system: RXF 393 renal
DMS 273 small cell lung = test system: DMS 273 small cell lung
HOP-18 NSCLC = test system: HOP-18 NSCLC
A549 NSCLC = test system: A549 NSCLC
M14 melanoma = test system: M14 melanoma
HCT-15 colon = test system: HCT-15 colon
SNB-19 CNS = test system: SNB-19 CNS
UACC-62 melanoma = test system: UACC-62 melanoma
SW-620 colon = test system: SW-620 colon
OVCAR-4 ovarian = test system: OVCAR-4 ovarian
SF-539 CNS = test system: SF-539 CNS
UO-31 renal = test system: UO-31 renal
NCI-H226 lung = test system: NCI-H226 lung
SK-MEL-5 melanoma = test system: SK-MEL-5 melanoma
OVCAR-5 ovarian = test system: OVCAR-5 ovarian
786-0 renal = test system: 786-0 renal
EKVX NSCLC = test system: EKVX NSCLC
SF-268 CNS = test system: SF-268 CNS
CAKI-1 renal = test system: CAKI-1 renal
SN12C renal = test system: SN12C renal
SK-MEL-28 melanoma = test system: SK-MEL-28 melanoma
XF 498 CNS = test system: XF 498 CNS

Measured: TGI

COc1ccc2nc(NC(=O)C(=O)C(C#N)c3ccc(CC#N)cc3)sc2c1 (configuration not stated)
not listed: XF 498 CNS
> 100 µM: all other assays above

COc1cc2ccc(C(=O)O)cc2cc1OC
not listed: HCC-2998 colon | DLD-1 colon | HL-60(TB) leukemia | CAKI-1 renal
> 100 µM: all other assays above
